Data from patent publication US20200071310A1, “N-ARYL PYRAZOLES AS NRF2 REGULATORS” (GLAXOSMITHKLINE INTELLECTUAL PROPERTY DEVELOPMENT LIMITED, priority 2016, published 2020).

Molecular target: T1, full length Keap1 protein / full length NRF2 protein (Homo sapiens, UniProt Q14145)
T1 construct: full length NRF2 protein and full length Keap1 protein (Keap1 exists a dimer) are used; His
Assay: NRF2-Keap1 TR-FRET Low Protein Assay
Format: binding
Source text: In the NRF2-Keap1 TR-FRET (time-resolved fluorescence resonance energy transfer) low protein assay, full length NRF2 protein and full length Keap1 protein (Keap1 exists a dimer) are used. The assay detects a compound's ability to displace the binding of Keap1 FlagHis with biotinylated Avi-NRF2 protein. Biotin-NRF2 binds to streptavidin-europium (a component of the detection mix) and Keap1 FlagHis is recognized by anti-Flag APC (allophycocyanin) antibody (also a component of the detection mix). If binding occurs between the two proteins, there will be an energy transfer from the Eu+3 (donor) at 615 nm to the APC (acceptor) at 665 nm. A potential NRF2 inhibitor will cause a reduction in the TR-FRET signal by interfering with the binding of Keap1 to NRF2.
Ten nanoliters of 100× compound dose response curves (serial 3-fold dilutions) in DMSO were stamped using an Echo liquid handling system (Labcyte) into 384-well, low volume, black assay plates (Greiner, #784076), with DMSO in columns 6 and 18. An additional 90 nl DMSO was added to each well, to bring the total volume to 100 nl per well. The top concentration of compound was located in columns 1 and 13, with the serial dilutions going across the row. All reagents were diluted in assay buffer (50 mM Tris, pH 8.0, 5 mM MgCl2, 100 mM NaCl, 0.005% BSA, 1 mM DTT, and 2 mM CHAPS. The BSA, DTT, and CHAPS were added to the assay buffer on the day of assay. Using a Multidrop Combi (Thermo Electron Corporation) equipped with a metal tip dispenser, 5 ul of 1.25 nM Keap1 FlagHis protein was added to all wells of the compound plate, with the exception of the wells in column 18. Wells in column 18 received 5 ul of assay buffer instead. Plates were centrifuged at 500 rpm for 1 minute, covered with a plate lid, and incubated at 37° C. for 2.25 hours. Plates were then removed from the incubator and allowed to cool to RT for 15 minutes. Five microliters of 2.5 nM biotin-NRF2 protein was then added to all wells of the plates and the plates were spun at 500 rpm for 1 minute, followed by incubating at 4° C. for 1.25 hours. The plates were then allowed to warm to RT for 15 minutes, followed by the addition of 10 ul of detection mix (1 nM Streptavidin Eu+W1024 and 5 ug/ml mouse anti-DYKDDDDK IgG conjugated to SureLight APC antibody; both from Columbia Biosciences) to all wells. Plates were spun at 500 rpm for 1 minute, incubated for 1 hour at RT, and read on an Envision plate reader using a 320 nm excitation filter and 615 nm and 665 nm emission filters. Compound response (% inhibition) and potency (pIC50) were calculated based on the ratio of the two emissions (665 nm/615 nm) and then the transformed data was normalized against controls in the assay (control 1=1% DMSO in the presence of NRF2 and Keap1 protein and control 2=1% DMSO in the presence of only the NRF2 protein). Data analysis was handled using the software package Abase XE (Surrey, United Kingdom). The % inhibition values were calculated from the ratio (transformed) data by the equation:
100−(100*(compound response−average control 2)/(average control 1−average control2)).
For calculation of pIC50s, Abase XE used a four parameter equation.
IC50s<10 nM (+++++), IC50s 10-100 nM (++++), IC50s 100 nM-1 uM (+++), IC50s 1-10 uM (++). and IC50s 10 uM-100 uM (+), IC50s>100 uM (−), or were not determined (ND).

T1 sequence (Q14145 whole entry): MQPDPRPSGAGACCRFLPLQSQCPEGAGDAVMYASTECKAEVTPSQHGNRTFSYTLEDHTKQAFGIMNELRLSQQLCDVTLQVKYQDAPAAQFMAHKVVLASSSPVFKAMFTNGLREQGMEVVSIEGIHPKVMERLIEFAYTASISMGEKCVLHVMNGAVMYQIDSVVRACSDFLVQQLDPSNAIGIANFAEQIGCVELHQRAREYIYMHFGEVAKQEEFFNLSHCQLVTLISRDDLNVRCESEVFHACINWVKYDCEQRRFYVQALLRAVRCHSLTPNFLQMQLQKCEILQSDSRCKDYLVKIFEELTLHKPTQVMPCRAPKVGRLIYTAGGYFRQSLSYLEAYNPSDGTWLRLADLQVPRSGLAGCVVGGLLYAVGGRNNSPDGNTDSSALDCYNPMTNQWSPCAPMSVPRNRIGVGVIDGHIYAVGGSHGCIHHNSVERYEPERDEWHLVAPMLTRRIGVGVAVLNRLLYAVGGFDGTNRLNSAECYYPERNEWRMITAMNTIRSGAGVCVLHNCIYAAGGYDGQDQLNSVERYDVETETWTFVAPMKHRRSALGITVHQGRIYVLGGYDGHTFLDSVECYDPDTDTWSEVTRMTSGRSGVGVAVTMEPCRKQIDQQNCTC

| EC50 [nM] | SMILES |
| --- | --- |
| 100 to 1000 | CN(Cc1cccc(-n2ncc(C(=O)O)c2[C@@H]2C[C@H]2c2cn(C)nn2)c1)S(=O)(=O)c1ccccc1Oc1ccccc1 (relative stereo) [Example 38, 5-((trans)-2-(1-methyl-1H-1,2,3-triazol-4-yl)cyclo-propyl)-1-(3-((N-methyl-2-phenoxyphenyl-sulfonamido)-methyl)phenyl)-1H-pyrazole-4-carboxylic acid] |
| 100 to 1000 | CN(Cc1cccc(-n2ncc(C(=O)O)c2[C@@H]2C[C@H]2c2cn(C)nn2)c1)S(=O)(=O)c1ccc(-c2ccccc2)cc1 (relative stereo) [Example 39, 5-((trans)-2-(1-methyl-1H-1,2,3-triazol-4-yl)cyclo-propyl)-1-(3-((N-methyl-[1,1′-biphenyl]-4-ylsulfonamido)-methyl)phenyl)-1H-pyrazole-4-carboxylic acid] |
| 10 to 100 | CC(c1cccc(-n2ncc(C(=O)O)c2[C@@H]2C[C@H]2c2cn(C)nn2)c1)N1C[C@@H](C)Cc2ccc(C(F)(F)F)cc2S1(=O)=O (single isomer, unassigned) [Example 6, 1-(3-((R or S)-1-((S)-4-Methyl-1,1-dioxido-8-(trifluoromethyl)-4,5-dihydrobenzo[f][1,2]thiazepin-2(3H)-yl)ethyl)phenyl)-5-((1R,2R)-2-(1-methyl-1H-1,2,3-triazol-4-yl)cyclopropyl)-1H-pyrazole-4-carboxylic acid] |
| 10 to 100 | CC[C@@H]1CN(Cc2cccc(-n3ncc(C(=O)O)c3[C@@H]3C[C@H]3c3cn(C)nn3)c2)S(=O)(=O)c2ccccc2O1 [Example 3] |
| 10 to 100 | CC[C@H]1Cc2ccccc2S(=O)(=O)N(Cc2cccc(-n3ncc(C(=O)O)c3[C@@H]3C[C@H]3c3cn(C)nn3)c2)C1 [Example 4] |
| 100 to 1000 | CC[C@@H]1Cc2ccccc2CN(Cc2cccc(-n3ncc(C(=O)O)c3[C@@H]3C[C@H]3c3cn(C)nn3)c2)C1 [Example 10] |
| 100 to 1000 | CC[C@H]1Cc2ccccc2CN(Cc2cccc(-n3ncc(C(=O)O)c3[C@@H]3C[C@H]3c3cn(C)nn3)c2)C1 [Example 11] |
| 10000 to 100000 | CCC1c2ccccc2OC(C)(C)CN1Cc1cccc(-n2ncc(C(=O)O)c2[C@@H]2C[C@H]2c2cn(C)nn2)c1 (stereo partly drawn) [Example 12] |
| 100 to 1000 | C[C@H]1Cc2ccccc2S(=O)(=O)N(Cc2cccc(-n3ncc(C(=O)O)c3[C@@H]3C[C@H]3c3cn(C)nn3)c2)C1 [Example 15, 1-(3-(((S)-4-methyl-1,1-dioxido-4,5-dihydrobenzo[f][1,2]thiazepin-2(3H)-yl)methyl)phenyl)-5-((trans)-2-(1-methyl-1H-1,2,3-triazol-4-yl)cyclopropyl)-1H-pyrazole-4-carboxylic acid] |
| < 10 | CC[C@H]1Cc2ccc(C(F)(F)F)cc2S(=O)(=O)N(Cc2cccc(-n3ncc(C(=O)O)c3[C@@H]3C[C@H]3c3cn(C)nn3)c2)C1 [Example 20, 1-(3-(((S)-4-ethyl-1,1-dioxido-8-(trifluoromethyl)-4,5-dihydrobenzo[f][1,2]thiazepin-2(3H)-yl)methyl)phenyl)-5-((1R,2R)-2-(1-methyl-1H-1,2,3-triazol-4-yl)cyclopropyl)-1H-pyrazole-4-carboxylic acid] |
| < 10 | CCCC[C@H]1Cc2ccc(C(F)(F)F)cc2S(=O)(=O)N(Cc2cccc(-n3ncc(C(=O)O)c3[C@@H]3C[C@H]3c3cn(C)nn3)c2)C1 [Example 21, 1-(3-(((S)-4-butyl-1,1-dioxido-8-(trifluoromethyl)-4,5-dihydrobenzo[f][1,2]thiazepin-2(3H)-yl)methyl)phenyl)-5-((1R,2R)-2-(1-methyl-1H-1,2,3-triazol-4-yl)cyclopropyl)-1H-pyrazole-4-carboxylic acid] |
| < 10 | CC[C@H]1Cc2ccc(Br)cc2S(=O)(=O)N(Cc2cccc(-n3ncc(C(=O)O)c3[C@@H]3C[C@H]3c3cn(C)nn3)c2)C1 [Example 22, 1-(3-(((S)-8-bromo-4-ethyl-1,1-dioxido-4,5-dihydrobenzo[f][1,2]thiazepin-2(3H)-yl)methyl)phenyl)-5-((1R,2R)-2-(1-methyl-1H-1,2,3-triazol-4-yl)cyclopropyl)-1H-pyrazole-4-carboxylic acid] |
